In patent US20240423995A1, “C-KIT INHIBITORS AND USES FOR TREATING AND PREVENTING INFLAMMATORY CONDITIONS” (GEORGETOWN UNIVERSITY, priority 2023, published 2024):

What was measured:
mast cells (spleen) = assay: MC maturation in the spleen of transgenic APP mice by flow cytometry; format: in vivo; settings: 20 and 40 mg/kg intraperitoneal, six weeks, vs DMSO
Method: The studies in this example compared the number of immature MCs to the number of mature MCs in the spleen.
12-month-old transgenic APP mice were injected intraperitoneally with 20 mg/kg BK40196, 40 mg/kg BK40196, or DMSO for six weeks before having spleens collected for analysis. Spleen samples were then treated with the three flow-conjugated antibodies and analyzed for maturation of mast cell progenitors to mature mast cells, as described in Example 5. Differences were compared using an unpaired Student's t-test.

peripheral mast cells = assay: Mature peripheral mast cells in blood of wild-type C57BL/6 mice by flow cytometry; format: in vivo; settings: 50 mg/kg per day intraperitoneal for five days, p=0.06
Method: Wild-type C57BL/6 mice were dosed with BK40197 via intraperitoneal injection at 50 mg/kg (maximum tolerated dose) per day for five days before blood samples were taken and peripheral mast cells were isolated via flow cytometry. Cell gating was performed using antibodies against specific epitopes for cells: CD45 antibody for leukocytes, FceR1 antibody for mature mast cells, and CD117 antibody for immature and mature mast cells.

SMILES | total number of mature MCs (CD117+/FceR1+) in the spleen (mast cells (spleen); dose-dependent) | total number of mature MCs (FceR1+) in the spleen (mast cells (spleen); dose-dependent) | ratio of immature MCs (CD117 only) to mature MCs (CD117 and FceR1) in the spleen (mast cells (spleen)) | reduction of gating for mature MCs (CD117+/FceR1+) compared to DMSO (peripheral mast cells)
Cc1cccc(-c2cc3nccc(Nc4cccc(O)c4)c3s2)c1 [BK40196] | significantly reduced | significantly reduced | increased | –
Cc1cccc(-c2cc3nccc(N4CCOCC4)c3s2)c1 [BK40197] | – | – | – | 48%
